Laboratory results reported in patent publication US20050065176A1, “Combinations” (priority 2003, published 2005).
Counter-ions that a name gives are not always drawn.

Assay: not given

| Structure (SMILES) | melting point |
| --- | --- |
| CCC[C@@H](C)C[C@H](N)CC(=O)O.Cl | 142.5 to 142.7 °C |
| CCCC(C)(C)CC(CN)C(=O)O.Cl (stereo not drawn) | 229.5 to 231 °C |
| CCCC[C@@H](C)C[C@H](N)CC(=O)O (as salt: hydrochloride) | 142.5 to 143.3 °C |
| CCC[C@@H](C)C[C@H](CN)C(=O)O (as salt: hydrochloride) | 226.3 to 228 °C |
| CCCC(C)(C)C[C@H](N)CC(=O)O (as salt: hydrochloride) (hydrate or solvate) | 194.2 to 195.2 °C |

Assay: Plasma concentration (Cmax) of gabapentin in the rat

| Structure (SMILES) | Cmax |
| --- | --- |
| NCC1(CC(=O)O)CCCCC1 [gabapentin, 1-(aminomethyl)-cyclohexylacetic acid] | 0.52 to 10.5 µg/mL |
